Among the test systems are OVCAR-3 ovarian; HCT-15 colon; SW-620 colon; NCI-H226 lung; MDA-MB-435; NCI-H460 lung; COLO 205 colon; M14 melanoma; HCT-116 colon; K-562 leukemia.
Common to all, as to assay: NCI anticancer screen, dose series, 48 h

Values joined by “and” are separate entries in the source; they are usually repeats but may differ in a detail not shown here. Equal entries are not always repeated.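 1) Cells in 96-well plates. 2) Compound, 48 h, 5 concentrations. 3) Linear interpolation between surrounding doses. 4) Unreached endpoint = highest concentration. The concentration for 50% growth inhibition is given as GI50. TGI is the concentration that stops growth completely.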

Our source for the GI50 and TGI values is PubChem BioAssay (NCI).

On to `OCCN(CCO)N=Nc1ccc(-c2nc3ccccc3[nH]2)cc1`, for which the GI50 with OVCAR-3 ovarian is 11 µM; in the experiment with HCT-15 colon it was 21.8 µM; in the experiment on SW-620 colon it was 18.9 µM; in the experiment with NCI-H226 lung it was more than 100 µM; in the experiment on MDA-MB-435, 18.5 µM; in the experiment on NCI-H460 lung, 13.7 µM. Besides, the GI50 in the experiment on COLO 205 colon was 22.9 µM; in the experiment with M14 melanoma, 46.4 µM; in the experiment on HCT-116 colon it was 25.3 µM; in the experiment with K-562 leukemia, 24 µM. In addition, the TGI in the experiment on OVCAR-3 ovarian is 25.7 µM; in the experiment with HCT-15 colon, 51.2 µM; in the experiment with SW-620 colon, 38.4 µM; in the experiment with NCI-H226 lung, more than 100 µM; in the experiment on MDA-MB-435 it was 38.8 µM; in the experiment on NCI-H460 lung, 29.5 µM. For the same compound, the TGI is 70.4 µM in the experiment on COLO 205 colon, more than 100 µM with M14 melanoma, 64.3 µM in the experiment on HCT-116 colon and more than 100 µM in the experiment with K-562 leukemia.

Regarding `Cc1[nH]c(=O)[nH]c(=O)c1N(CCF)CCCl`, the GI50 is 147 µM and 530 µM with OVCAR-3 ovarian; 182 µM and 310 µM and 186 µM with HCT-15 colon; 321 µM and 289 µM and 147 µM in the experiment with SW-620 colon; 249 µM in the experiment on NCI-H226 lung; 118 µM and 264 µM and 171 µM in the experiment on NCI-H460 lung; 337 µM with COLO 205 colon. For the same compound, the GI50 is 243 µM and 491 µM with HCT-116 colon; 403 µM and 215 µM in the experiment on K-562 leukemia. Moreover, the TGI with OVCAR-3 ovarian was 356 µM and 1350 µM and 972 µM; in the experiment with HCT-15 colon, 503 µM and 486 µM and 1330 µM; in the experiment on SW-620 colon it was 1100 µM and 805 µM; in the experiment on NCI-H226 lung it was 584 µM and 1960 µM and 1390 µM; in the experiment on MDA-MB-435, 876 µM; in the experiment with NCI-H460 lung, 689 µM and 834 µM and 633 µM. In addition, the TGI was 930 µM and 805 µM in the experiment with COLO 205 colon; 767 µM in the experiment on M14 melanoma; 662 µM and 1570 µM and 1010 µM in the experiment on HCT-116 colon; 757 µM and 1350 µM and 1110 µM in the experiment with K-562 leukemia.

On to `Cc1ccc(C)c(NC(=O)C(=O)C(c2cnc3ccc([N+](=O)[O-])cc3n2)[N+](=O)[O-])c1` (stereo not given), for which the TGI with OVCAR-3 ovarian, in the experiment with HCT-15 colon, in the experiment with SW-620 colon, with NCI-H226 lung, with MDA-MB-435 and in the experiment with NCI-H460 lung was more than 100 µM in each case. Moreover, the TGI in the experiment on COLO 205 colon, in the experiment with M14 melanoma, in the experiment on HCT-116 colon and in the experiment with K-562 leukemia was more than 100 µM throughout.

On to `COc1ccc(CN2C(=O)/C(=C\c3cc(OC)c(OC)c(OC)c3)c3cc(OC)ccc32)cc1`, for which the GI50 in the experiment on OVCAR-3 ovarian is 2.14 µM; with HCT-15 colon it was 1.66 µM; in the experiment on SW-620 colon it was 1.82 µM; in the experiment on NCI-H226 lung, 3.93 µM; in the experiment with MDA-MB-435 it was 2.88 µM; in the experiment on NCI-H460 lung, 1.91 µM. Also, the GI50 is 2.59 µM in the experiment on COLO 205 colon, 1.98 µM with M14 melanoma, 1.63 µM with HCT-116 colon and 3.13 µM in the experiment on K-562 leukemia. Besides, the TGI in the experiment with OVCAR-3 ovarian came to 4.7 µM; in the experiment with HCT-15 colon, 3.42 µM; with SW-620 colon, 3.41 µM; in the experiment on NCI-H226 lung it was 22.8 µM; in the experiment with MDA-MB-435 it was 8.88 µM; in the experiment on NCI-H460 lung, 3.83 µM. Moreover, the TGI is 6.51 µM in the experiment on COLO 205 colon, 4.32 µM with M14 melanoma, 3.05 µM in the experiment on HCT-116 colon and more than 35.5 µM in the experiment on K-562 leukemia.

On to `CCN1C(=O)C/C(=C\C(C)=O)Nc2ccccc21`, for which the TGI in the experiment with OVCAR-3 ovarian, in the experiment on HCT-15 colon, in the experiment on SW-620 colon, with NCI-H226 lung, in the experiment on MDA-MB-435 and in the experiment on NCI-H460 lung was more than 100 µM each time. Also, the TGI in the experiment on COLO 205 colon, in the experiment on M14 melanoma, in the experiment with HCT-116 colon and with K-562 leukemia was more than 100 µM each time. For the same compound, the GI50 in the experiment with HCT-15 colon and in the experiment on MDA-MB-435 was more than 100 µM in each case.

For `CC/C=C\C[C@H](O)C/C=C1/C(=O)C=C[C@@H]1C/C=C\CCCC(=O)NC(C)C`, the GI50 in the experiment with OVCAR-3 ovarian is 2.63 µM; in the experiment on HCT-15 colon it was 2.02 µM; in the experiment with SW-620 colon it was 3.16 µM; in the experiment with NCI-H226 lung, 2.31 µM; in the experiment with MDA-MB-435, 2.3 µM; in the experiment with NCI-H460 lung it was 2.43 µM. Also, the GI50 in the experiment with COLO 205 colon was 2.51 µM; with M14 melanoma, 2.87 µM; with HCT-116 colon, 1.73 µM; in the experiment on K-562 leukemia it was 2.86 µM. Besides, the TGI with OVCAR-3 ovarian worked out at 8.41 µM; with HCT-15 colon, 4.92 µM; in the experiment with SW-620 colon it was 10.8 µM; in the experiment with NCI-H226 lung it was 4.74 µM; with MDA-MB-435 it was 6.51 µM; in the experiment with NCI-H460 lung it was 5.79 µM. Besides, the TGI in the experiment on COLO 205 colon was 5.44 µM; in the experiment on M14 melanoma it was 10 µM; with HCT-116 colon, 3.59 µM; in the experiment on K-562 leukemia, 38.9 µM.

For `CC1=C(C)C(=O)c2c(c(C(=O)c3ccccc3)c3nc4ccccc4n3c2C)C1=O`, the GI50 in the experiment on OVCAR-3 ovarian was more than 100 µM; in the experiment with HCT-15 colon it was more than 100 µM; in the experiment with SW-620 colon, more than 100 µM; with NCI-H226 lung, more than 100 µM; in the experiment with MDA-MB-435, more than 100 µM; in the experiment on NCI-H460 lung, 63.3 µM. Besides, the GI50 in the experiment on COLO 205 colon was more than 100 µM; in the experiment with M14 melanoma it was more than 100 µM; in the experiment on HCT-116 colon it was 87.2 µM; in the experiment with K-562 leukemia it was more than 100 µM. Moreover, the TGI in the experiment with OVCAR-3 ovarian, in the experiment with HCT-15 colon, with SW-620 colon, with NCI-H226 lung, in the experiment on MDA-MB-435 and in the experiment on NCI-H460 lung was more than 100 µM each time. The TGI with COLO 205 colon, in the experiment with M14 melanoma, with HCT-116 colon and in the experiment with K-562 leukemia was more than 100 µM throughout.

As for `COc1ccc(-c2ccc(C3CC(c4ccc(O)cc4)=NN3)o2)c([N+](=O)[O-])c1` (stereo not given), the GI50 is 24.1 µM with OVCAR-3 ovarian; 35.4 µM in the experiment on HCT-15 colon; 37.3 µM in the experiment with SW-620 colon; 36.4 µM in the experiment with NCI-H226 lung; 30 µM in the experiment on MDA-MB-435; 21.1 µM with NCI-H460 lung. The GI50 with COLO 205 colon was 27.2 µM; in the experiment on M14 melanoma, 36.1 µM; in the experiment on HCT-116 colon, 20.1 µM; with K-562 leukemia it was 13.9 µM. Also, the TGI with OVCAR-3 ovarian is more than 100 µM; with HCT-15 colon it was more than 100 µM; with SW-620 colon, more than 100 µM; in the experiment on NCI-H226 lung, more than 100 µM; with MDA-MB-435, more than 100 µM; with NCI-H460 lung, 81.8 µM. Also, the TGI in the experiment with COLO 205 colon was 82.7 µM; with M14 melanoma, more than 100 µM; with HCT-116 colon, more than 100 µM; in the experiment on K-562 leukemia, 36.3 µM.
